Measured values as given in patent US6706663B2, “Herbicidal 3-heterocyclic substituted benzisothiazole and benzisoxazole compounds” (Wyeth, priority 2000, dated 2004).

Tests used:
SETVI (Setaria viridis) [1] = test: Postemergence herbicidal evaluation; format: in vivo, (L.) Beau; conditions: for SETVI herbicidal rating: postemergence
Summary of the method: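 Ratings use a 0-9 visual scale covering stand, vigor, malformation, size, chlorosis and appearance versus a control, scored 4-5 weeks post-spray. Roughly two-week-old seedlings received about 0.0040-1.000 kg/ha active, applied in 50/50 acetone/water with 0.5% TWEEN 20. Multiple tests per compound were averaged.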

GALAP (Galium aparine) [2] = test: Preemergence herbicidal evaluation; format: in vivo; conditions: rated 4-5 weeks after treatment
Summary of the method: (§1)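 Preemergence soil spray, aq. acetone; greenhouse; visual 0–9 score vs control at 4–5 wk.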

ZEAMX (Corn, Field) = test: Preemergence herbicidal evaluation; format: in vivo, Zea mays, L.; conditions: rated 4-5 weeks after treatment
SETVI (Setaria viridis) [3] = test: Preemergence herbicidal evaluation; format: in vivo, (L.) Beau; conditions: rated 4-5 weeks after treatment
Summary of the method: as §1

[4] = tested on: ECHCG (Echinochloa crus-galli); test: Preemergence herbicidal evaluation; format: in vivo, (L.) Beau; conditions: rated 4-5 weeks after treatment
Summary of the method: as §1

[5] = tested on: ABUTH (Abutilon theophrasti); test: Postemergence herbicidal evaluation; format: in vivo, Medic.; conditions: for ABUTH herbicidal rating: postemergence
Summary of the method: (§2)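 Visual 0–9 injury scores versus control plants, covering stand, vigour, malformation, size, chlorosis and general appearance, taken four to five weeks post-spray and averaged over replicate tests. Plants were sprayed at roughly two weeks old and held on greenhouse benches.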

[6] = tested on: MOOVA (Monochoria vaginalis); test: Flooded paddy, preemergence weed control; format: in vivo, Presl.; conditions: rated 3-4 weeks after treatment, 0-9 rating scale
Summary of the method: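 Seeds or propagating organs were sown in the top 0.5 cm of silt loam soil, flooded, and the water kept 1.5 to 3 cm above the soil surface throughout. Plants were grown in the greenhouse and rated visually on a 0-9 scale against a control.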

ORYSAT (Rice, Tebonnet) = test: Flooded paddy, post-transplant rice tolerance; format: in vivo, Oryza sativa, (L.) Tebonnet; conditions: flooded paddy, post-transplant rice, rated 3-4 weeks after treatment, 0-9 rating scale
Summary of the method: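 Ten-day-old seedlings, 2/pot, silt loam; flood kept 1.5–3 cm over soil; herbicide applied post-transplant; greenhouse; score 0–9 visual vs control.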

[7] = tested on: CHEAL (Chenopodium album); test: Preemergence herbicidal evaluation; format: in vivo, L.; conditions: rated 4-5 weeks after treatment
Summary of the method: as §1

[8] = tested on: AMBEL (Ambrosia artemisifolia); test: Preemergence herbicidal evaluation; format: in vivo, L.; conditions: rated 4-5 weeks after treatment
Summary of the method: as §1

[9] = tested on: CASOB (Cassia obtusifolia); test: Preemergence herbicidal evaluation; format: in vivo, L.; conditions: rated 4-5 weeks after treatment
Summary of the method: as §1

[10] = tested on: GLXMAW (Soybean, Williams); test: Postemergence herbicidal evaluation; format: in vivo, Glycine max, (L.) Merr. cv Williams; conditions: for GLXMAW herbicidal rating: postemergence
Summary of the method: as §2

[11] = tested on: TRZAWR (Wheat, Winter, cv Riband); test: Postemergence herbicidal evaluation; format: in vivo, Triticum aestivum; conditions: for TRZAWR herbicidal rating: postemergence
Summary of the method: as §2

[12] = tested on: IPOHE (Ipomoea hederacea); test: Postemergence herbicidal evaluation; format: in vivo, (L.) Jacq.; conditions: for IPOHE herbicidal rating: postemergence
Summary of the method: as §2

[13] = tested on: CYPSE (Cyperus serotinus); test: Flooded paddy, preemergence weed control; format: in vivo, Rottb.; conditions: rated 3-4 weeks after treatment, 0-9 rating scale
Summary of the method: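 Seeds or propagules were planted 0.5 cm deep in silt loam and flooded to 1.5–3 cm. Compounds in 50/50 v/v aqueous/acetone were pipetted into the flood water at about 0.0080 to 0.1250 kg/ha. After 3–4 weeks in the greenhouse, effect was rated visually on a 0–9 scale versus untreated control.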

[14] = tested on: ABUTH (Abutilon theophrasti); test: Preemergence herbicidal evaluation; format: in vivo, Medic.; conditions: rated 4-5 weeks after treatment
GALAP (Galium aparine) [15] = test: Postemergence herbicidal evaluation; format: in vivo; conditions: for GALAP herbicidal rating: postemergence
Summary of the method: as §2

Cn1c(C(F)(F)F)cc(=O)n(-c2ccc3snc(C4OCCCS4)c3c2)c1=O (centres unmarked) [Compound 34, 1-methyl-3-[3-(1,3-oxathian-2-yl)-1,2-benzisothiazol-5-yl]-6-(trifluoromethyl)uracil]
SETVI herbicidal rating (SETVI (Setaria viridis) [1]; rate 0.0320 kg/ha): 9.0
SETVI herbicidal rating (SETVI (Setaria viridis) [1]; rate 0.0620 kg/ha): 9.0
Postemergence herbicidal rating, SETVI (SETVI (Setaria viridis) [1]; rate 0.0320 kg/ha): 6.0
Postemergence herbicidal rating, SETVI (SETVI (Setaria viridis) [1]; rate 0.0620 kg/ha): 8.0
GALAP preemergence herbicidal rating (GALAP (Galium aparine) [2]; Rate 0.0620 kg/ha): 5.0
Preemergence herbicidal rating GALAP (GALAP (Galium aparine) [2]; Rate 0.0620 kg/ha): 9.0
GALAP preemergence herbicidal rating (GALAP (Galium aparine) [2]; Rate 0.1250 kg/ha): 9.0
Preemergence herbicidal rating GALAP (GALAP (Galium aparine) [2]; Rate 0.1250 kg/ha): 9.0
GALAP preemergence herbicidal rating (GALAP (Galium aparine) [2]; Rate 0.2500 kg/ha): 9.0
Preemergence herbicidal rating GALAP (GALAP (Galium aparine) [2]; Rate 0.2500 kg/ha): 9.0
ZEAMX preemergence herbicidal rating (ZEAMX (Corn, Field); Rate 0.0620 kg/ha): 5.0
Preemergence herbicidal rating ZEAMX (ZEAMX (Corn, Field); Rate 0.0620 kg/ha): 4.5
ZEAMX preemergence herbicidal rating (ZEAMX (Corn, Field); Rate 0.1250 kg/ha): 7.0
Preemergence herbicidal rating ZEAMX (ZEAMX (Corn, Field); Rate 0.1250 kg/ha): 6.0
ZEAMX preemergence herbicidal rating (ZEAMX (Corn, Field); Rate 0.2500 kg/ha): 9.0
Preemergence herbicidal rating ZEAMX (ZEAMX (Corn, Field); Rate 0.2500 kg/ha): 6.5
SETVI preemergence herbicidal rating (SETVI (Setaria viridis) [3]; Rate 0.0620 kg/ha): 9.0
Preemergence herbicidal rating SETVI (SETVI (Setaria viridis) [3]; Rate 0.0620 kg/ha): 9.0
SETVI preemergence herbicidal rating (SETVI (Setaria viridis) [3]; Rate 0.1250 kg/ha): 9.0
Preemergence herbicidal rating SETVI (SETVI (Setaria viridis) [3]; Rate 0.1250 kg/ha): 9.0
SETVI preemergence herbicidal rating (SETVI (Setaria viridis) [3]; Rate 0.2500 kg/ha): 9.0
Preemergence herbicidal rating SETVI (SETVI (Setaria viridis) [3]; Rate 0.2500 kg/ha): 9.0
ECHCG preemergence herbicidal rating ([4]; Rate 0.0620 kg/ha): 7.0
Preemergence herbicidal rating ECHCG ([4]; Rate 0.0620 kg/ha): 9.0
ECHCG preemergence herbicidal rating ([4]; Rate 0.1250 kg/ha): 8.0
Preemergence herbicidal rating ECHCG ([4]; Rate 0.1250 kg/ha): 9.0
ECHCG preemergence herbicidal rating ([4]; Rate 0.2500 kg/ha): 9.0
Preemergence herbicidal rating ECHCG ([4]; Rate 0.2500 kg/ha): 9.0
ABUTH herbicidal rating ([5]; rate 0.0320 kg/ha): 9.0
ABUTH herbicidal rating ([5]; rate 0.0620 kg/ha): 9.0
Postemergence herbicidal rating, ABUTH ([5]; rate 0.0320 kg/ha): 9.0
Postemergence herbicidal rating, ABUTH ([5]; rate 0.0620 kg/ha): 9.0
herbicidal rating, MOOVA ([6]; rate 0.0320 kg/ha): 9.0
herbicidal rating, MOOVA ([6]; rate 0.0620 kg/ha): 9.0
herbicidal rating, MOOVA ([6]; rate 0.1250 kg/ha): 9.0
herbicidal rating, ORYSAT (rice tolerance) (ORYSAT (Rice, Tebonnet); rate 0.0080 kg/ha): 3.0
herbicidal rating, ORYSAT (rice tolerance) (ORYSAT (Rice, Tebonnet); rate 0.0080 kg/ha, listed as 81): 5.0
herbicidal rating, ORYSAT (rice tolerance) (ORYSAT (Rice, Tebonnet); rate 0.0320 kg/ha): 6.7
herbicidal rating, ORYSAT (rice tolerance) (ORYSAT (Rice, Tebonnet); rate 0.0620 kg/ha): 8.5
herbicidal rating, ORYSAT (rice tolerance) (ORYSAT (Rice, Tebonnet); rate 0.1250 kg/ha): 9.0
herbicidal rating, ORYSAT (rice tolerance) (ORYSAT (Rice, Tebonnet); rate 0.1250 kg/ha, listed as 81): 8.0
CHEAL preemergence herbicidal rating ([7]; Rate 0.0620 kg/ha): 9.0
Preemergence herbicidal rating CHEAL ([7]; Rate 0.0620 kg/ha): 9.0
CHEAL preemergence herbicidal rating ([7]; Rate 0.1250 kg/ha): 9.0
Preemergence herbicidal rating CHEAL ([7]; Rate 0.1250 kg/ha): 9.0
CHEAL preemergence herbicidal rating ([7]; Rate 0.2500 kg/ha): 9.0
Preemergence herbicidal rating CHEAL ([7]; Rate 0.2500 kg/ha): 9.0
AMBEL preemergence herbicidal rating ([8]; Rate 0.0620 kg/ha): 9.0
Preemergence herbicidal rating AMBEL ([8]; Rate 0.0620 kg/ha): 9.0
AMBEL preemergence herbicidal rating ([8]; Rate 0.1250 kg/ha): 9.0
Preemergence herbicidal rating AMBEL ([8]; Rate 0.1250 kg/ha): 9.0
AMBEL preemergence herbicidal rating ([8]; Rate 0.2500 kg/ha): 9.0
Preemergence herbicidal rating AMBEL ([8]; Rate 0.2500 kg/ha): 9.0
CASOB preemergence herbicidal rating ([9]; Rate 0.0620 kg/ha): 5.0
Preemergence herbicidal rating CASOB ([9]; Rate 0.0620 kg/ha): 2.5
CASOB preemergence herbicidal rating ([9]; Rate 0.1250 kg/ha): 9.0
Preemergence herbicidal rating CASOB ([9]; Rate 0.1250 kg/ha): 3.0
CASOB preemergence herbicidal rating ([9]; Rate 0.2500 kg/ha): 9.0
Preemergence herbicidal rating CASOB ([9]; Rate 0.2500 kg/ha): 4.5
GLXMAW herbicidal rating ([10]; rate 0.0320 kg/ha): 6.5
GLXMAW herbicidal rating ([10]; rate 0.0620 kg/ha): 6.5
Postemergence herbicidal rating, GLXMAW ([10]; rate 0.0320 kg/ha): 9.0
Postemergence herbicidal rating, GLXMAW ([10]; rate 0.0620 kg/ha): 9.0
TRZAWR herbicidal rating ([11]; rate 0.0320 kg/ha): 4.0
TRZAWR herbicidal rating ([11]; rate 0.0620 kg/ha): 6.5
Postemergence herbicidal rating, TRZAWR ([11]; rate 0.0320 kg/ha): 5.5
Postemergence herbicidal rating, TRZAWR ([11]; rate 0.0620 kg/ha): 5.5
IPOHE herbicidal rating ([12]; rate 0.0320 kg/ha): 9.0
IPOHE herbicidal rating ([12]; rate 0.0620 kg/ha): 9.0
Postemergence herbicidal rating, IPOHE ([12]; rate 0.0320 kg/ha): 9.0
Postemergence herbicidal rating, IPOHE ([12]; rate 0.0620 kg/ha): 9.0
herbicidal rating, CYPSE ([13]; rate 0.0620 kg/ha): 9.0
herbicidal rating, CYPSE ([13]; rate 0.1250 kg/ha): 9.0
ABUTH preemergence herbicidal rating ([14]; Rate 0.0620 kg/ha): 9.0
Preemergence herbicidal rating ABUTH ([14]; Rate 0.0620 kg/ha): 9.0
ABUTH preemergence herbicidal rating ([14]; Rate 0.1250 kg/ha): 9.0
Preemergence herbicidal rating ABUTH ([14]; Rate 0.1250 kg/ha): 9.0
ABUTH preemergence herbicidal rating ([14]; Rate 0.2500 kg/ha): 9.0
Preemergence herbicidal rating ABUTH ([14]; Rate 0.2500 kg/ha): 9.0
GALAP herbicidal rating (GALAP (Galium aparine) [15]; rate 0.0320 kg/ha): 2.0
GALAP herbicidal rating (GALAP (Galium aparine) [15]; rate 0.0620 kg/ha): 6.0
Postemergence herbicidal rating, GALAP (GALAP (Galium aparine) [15]; rate 0.0320 kg/ha): 6.0
Postemergence herbicidal rating, GALAP (GALAP (Galium aparine) [15]; rate 0.0620 kg/ha): 7.0
